Test results reported in paper PMC5218480 (PLoS ONE, 2017).

Tested on: MV-4-11 cells
Assay: Gene expression microarray analysis (Affymetrix PrimeView) and GSEA
Assay type: cell-based, human
Parameters: RFU PODN (11730768_x_at) / Fold change /veh PODN (11730768_x_at) / RFU LINC00158 (11744669_a_at) / Fold change /veh LINC00158 (11744669_a_at) / RFU DUSP10 (11751237_a_at) / Fold change /veh DUSP10 (11751237_a_at) / RFU ID3 (11757404_x_at) / Fold change /veh ID3 (11757404_x_at) / RFU PLEKHG5 (11737974_s_at) / Fold change /veh PLEKHG5 (11737974_s_at) / RFU LRRC4B (11730491_at) / Fold change /veh LRRC4B (11730491_at) / RFU GIMAP4 (11747438_a_at) / Fold change /veh GIMAP4 (11747438_a_at) / RFU KRT8 (11758183_x_at) / Fold change /veh KRT8 (11758183_x_at) / RFU CNN1 (11734310_a_at) / Fold change /veh CNN1 (11734310_a_at) / RFU VPS37D (11726825_at) / Fold change /veh VPS37D (11726825_at) / RFU C10orf10 (11716522_x_at) / Fold change /veh C10orf10 (11716522_x_at) / RFU KIR2DL2 /// KIR2DL4 /// KIR2DL5A /// KIR2DL5B /// KIR2DS1 /// KIR2DS2 /// KIR2DS3 /// KIR2DS4 /// KIR3DL3 /// KIR3DL3 /// KIR3DS1 (11738374_at) / Fold change /veh KIR2DL2 /// KIR2DL4 /// KIR2DL5A /// KIR2DL5B /// KIR2DS1 /// KIR2DS2 /// KIR2DS3 /// KIR2DS4 /// KIR3DL3 /// KIR3DL3 /// KIR3DS1 (11738374_at) / RFU C1QL1 (11718748_at) / Fold change /veh C1QL1 (11718748_at) / RFU TMPRSS4 (11747572_a_at) / Fold change /veh TMPRSS4 (11747572_a_at) / RFU HAMP (11756126_x_at) / Fold change /veh HAMP (11756126_x_at) / RFU RNFT2 (11725882_a_at) / Fold change /veh RNFT2 (11725882_a_at) / RFU NR4A2 (11747474_a_at) / Fold change /veh NR4A2 (11747474_a_at) / RFU ABCC12 (11746883_a_at) / Fold change /veh ABCC12 (11746883_a_at) / RFU TMEM136 (11760407_x_at) / Fold change /veh TMEM136 (11760407_x_at) / RFU CLDN22 /// WWC2 (11732394_at) / Fold change /veh CLDN22 /// WWC2 (11732394_at) / RFU HLA-DPB1 (11760878_x_at) / Fold change /veh HLA-DPB1 (11760878_x_at) / RFU SPINT1 (11716480_a_at) / Fold change /veh SPINT1 (11716480_a_at) / RFU GAP43 (11754022_s_at) / Fold change /veh GAP43 (11754022_s_at) / RFU A4GNT (11735810_at) / Fold change /veh A4GNT (11735810_at) / RFU PRB3 (11715151_x_at) / Fold change /veh PRB3 (11715151_x_at) / RFU TUBB4B (11761932_at) / Fold change /veh TUBB4B (11761932_at) / RFU CAPN14 (11732068_a_at) / Fold change /veh CAPN14 (11732068_a_at) / RFU TMCC2 (11721928_a_at) / Fold change /veh TMCC2 (11721928_a_at) / RFU IRGQ (11745062_a_at) / Fold change /veh IRGQ (11745062_a_at) / RFU FAM174B (11720279_a_at) / Fold change /veh FAM174B (11720279_a_at) / RFU TMPRSS4 (11748680_a_at) / Fold change /veh TMPRSS4 (11748680_a_at) / RFU FAM212B (11763350_a_at) / Fold change /veh FAM212B (11763350_a_at) / RFU PLEKHG5 (11743358_a_at) / Fold change /veh PLEKHG5 (11743358_a_at) / RFU ZSCAN30 (11745921_a_at) / Fold change /veh ZSCAN30 (11745921_a_at) / RFU CMKLR1 (11741424_a_at) / Fold change /veh CMKLR1 (11741424_a_at) / RFU LOC101060620 /// MAPK8IP1 (11723275_at) / Fold change /veh LOC101060620 /// MAPK8IP1 (11723275_at) / RFU SPTSSB (11747773_x_at) / Fold change /veh SPTSSB (11747773_x_at) / RFU PRSS12 (11739890_at) / Fold change /veh PRSS12 (11739890_at) / RFU BIN1 (11741810_x_at) / Fold change /veh BIN1 (11741810_x_at) / RFU WNT11 (11732464_a_at) / Fold change /veh WNT11 (11732464_a_at) / RFU C10orf10 (11716521_a_at) / Fold change /veh C10orf10 (11716521_a_at) / RFU C5orf56 (11738089_at) / Fold change /veh C5orf56 (11738089_at) / RFU CYB561 (11721691_x_at) / Fold change /veh CYB561 (11721691_x_at) / RFU ANKRD19P (11752326_a_at) / Fold change /veh ANKRD19P (11752326_a_at) / RFU OR2T12 /// OR2T33 /// OR2T8 (11738714_s_at) / Fold change /veh OR2T12 /// OR2T33 /// OR2T8 (11738714_s_at) / RFU VCAN (11748164_a_at) / Fold change /veh VCAN (11748164_a_at) / RFU JSRP1 (11732532_at) / Fold change /veh JSRP1 (11732532_at) / RFU KRTAP10-11 (11738290_x_at) / Fold change /veh KRTAP10-11 (11738290_x_at) / RFU MYO3A (11730013_a_at) / Fold change /veh MYO3A (11730013_a_at) / RFU EBF3 (11725865_a_at) / Fold change /veh EBF3 (11725865_a_at) / RFU CAMK2N1 (11719241_x_at) / Fold change /veh CAMK2N1 (11719241_x_at) / RFU C5orf56 (11738088_a_at) / Fold change /veh C5orf56 (11738088_a_at) / RFU OLFML3 (11715873_a_at) / Fold change /veh OLFML3 (11715873_a_at) / RFU LOC100653217 /// NTM (11731650_a_at) / Fold change /veh LOC100653217 /// NTM (11731650_a_at) / RFU MAPK11 (11762145_a_at) / Fold change /veh MAPK11 (11762145_a_at) / RFU FIZ1 (11724087_x_at) / Fold change /veh FIZ1 (11724087_x_at) / RFU OASL (11726364_x_at) / Fold change /veh OASL (11726364_x_at) / RFU SOX15 (11748057_x_at) / Fold change /veh SOX15 (11748057_x_at) / RFU CD79A (11719716_a_at) / Fold change /veh CD79A (11719716_a_at) / RFU HIST1H1D (11736915_at) / Fold change /veh HIST1H1D (11736915_at) / RFU CASKIN2 (11723855_a_at) / Fold change /veh CASKIN2 (11723855_a_at) / RFU LOC730098 (11760151_x_at) / Fold change /veh LOC730098 (11760151_x_at) / RFU OR4N2 (11742367_at) / Fold change /veh OR4N2 (11742367_at) / RFU PRRT2 (11749266_a_at) / Fold change /veh PRRT2 (11749266_a_at) / RFU SNX32 (11753110_a_at) / Fold change /veh SNX32 (11753110_a_at) / RFU CDHR5 (11726645_a_at) / Fold change /veh CDHR5 (11726645_a_at) / RFU RCAN1 (11760418_a_at) / Fold change /veh RCAN1 (11760418_a_at) / RFU FAM167A (11723789_a_at) / Fold change /veh FAM167A (11723789_a_at) / RFU FAM26E (11764081_at) / Fold change /veh FAM26E (11764081_at) / RFU ISYNA1 (11749810_s_at) / Fold change /veh ISYNA1 (11749810_s_at) / RFU ACY1 (11761880_at) / Fold change /veh ACY1 (11761880_at) / RFU 11764098_at / Fold change /veh 11764098_at / RFU SAMD14 (11745864_x_at) / Fold change /veh SAMD14 (11745864_x_at) / RFU NPB (11741838_a_at) / Fold change /veh NPB (11741838_a_at) / RFU TMPRSS6 (11731388_a_at) / Fold change /veh TMPRSS6 (11731388_a_at) / RFU KRTAP10-2 (11738614_at) / Fold change /veh KRTAP10-2 (11738614_at) / RFU ARHGAP8 /// PRR5-ARHGAP8 (11727945_x_at) / Fold change /veh ARHGAP8 /// PRR5-ARHGAP8 (11727945_x_at) / RFU KRTAP5-7 /// NADSYN1 (11734609_at) / Fold change /veh KRTAP5-7 /// NADSYN1 (11734609_at) / RFU RASL12 (11751679_a_at) / Fold change /veh RASL12 (11751679_a_at) / RFU CDKN2B (11736163_a_at) / Fold change /veh CDKN2B (11736163_a_at) / RFU PRF1 (11729649_at) / Fold change /veh PRF1 (11729649_at) / RFU, ZNF638 /// ZNF638-IT1 / Fold change vs veh, ZNF638 /// ZNF638-IT1 / RFU, PANK3 / Fold change vs veh, PANK3 / RFU, SH3YL1 / Fold change vs veh, SH3YL1 / RFU, ZEB2 / Fold change vs veh, ZEB2 / RFU, NRIP1 / Fold change vs veh, NRIP1 / RFU, PTTG1IP / Fold change vs veh, PTTG1IP / RFU, CAPN2 / Fold change vs veh, CAPN2 / RFU, MED14 / Fold change vs veh, MED14 / RFU, SNORA58 / Fold change vs veh, SNORA58 / RFU, C1orf63 / Fold change vs veh, C1orf63 / RFU, LRRFIP1 / Fold change vs veh, LRRFIP1 / RFU, NDUFAF7 / Fold change vs veh, NDUFAF7 / RFU, SLC12A2 / Fold change vs veh, SLC12A2 / RFU, IBTK / Fold change vs veh, IBTK / RFU, ESF1 / Fold change vs veh, ESF1 / Fold change vs veh, TMEM50B / RFU, TAOK1 / Fold change vs veh, TAOK1 / RFU, ACBD3 / Fold change vs veh, ACBD3 / RFU, TMA16 / Fold change vs veh, TMA16 / RFU, RWDD3 / Fold change vs veh, RWDD3 / RFU, BCAT1 / Fold change vs veh, BCAT1 / RFU, EDEM3 / Fold change vs veh, EDEM3 / RFU, TMEM33 / Fold change vs veh, TMEM33 / RFU, WDR75 / Fold change vs veh, WDR75 / RFU, AHCTF1 / Fold change vs veh, AHCTF1 / RFU, TFRC / Fold change vs veh, TFRC / RFU, ZDHHC17 / Fold change vs veh, ZDHHC17 / RFU, NOM1 / Fold change vs veh, NOM1 / RFU, ARL8B / Fold change vs veh, ARL8B / RFU, ZBTB11 / Fold change vs veh, ZBTB11 / RFU, TAMM41 / Fold change vs veh, TAMM41 / RFU, KIAA1704 /// LOC100996395 / Fold change vs veh, KIAA1704 /// LOC100996395 / RFU, ING1 / Fold change vs veh, ING1 / RFU, TRMT61B / Fold change vs veh, TRMT61B / RFU, FUBP3 / Fold change vs veh, FUBP3 / RFU, TP53 / Fold change vs veh, TP53 / RFU, TNKS2 / Fold change vs veh, TNKS2 / RFU, ZFP14 / Fold change vs veh, ZFP14 / RFU, ACTR2 / Fold change vs veh, ACTR2 / RFU, PPP3R1 / Fold change vs veh, PPP3R1 / RFU, PIK3R1 / Fold change vs veh, PIK3R1 / RFU, HNRNPA1 / Fold change vs veh, HNRNPA1 / RFU, RNF170 / Fold change vs veh, RNF170 / RFU, ZNF28 / Fold change vs veh, ZNF28 / RFU, RNGTT / Fold change vs veh, RNGTT / RFU, OGT / Fold change vs veh, OGT / RFU, BRD1 / Fold change vs veh, BRD1 / RFU, MARS / Fold change vs veh, MARS / RFU, ZNF655 / Fold change vs veh, ZNF655 / RFU, FAHD1 / Fold change vs veh, FAHD1 / RFU, BDP1 / Fold change vs veh, BDP1 / RFU, LRRCC1 / Fold change vs veh, LRRCC1 / RFU, ARID1A / Fold change vs veh, ARID1A / RFU, ZNF146 / Fold change vs veh, ZNF146 / RFU, ZNF330 / Fold change vs veh, ZNF330 / RFU, GPN3 / Fold change vs veh, GPN3 / RFU, C9orf123 / Fold change vs veh, C9orf123 / RFU, N4BP2L2 / Fold change vs veh, N4BP2L2 / RFU, ARFIP1 / Fold change vs veh, ARFIP1 / RFU, FAM179B / Fold change vs veh, FAM179B / RFU, BCL10 / Fold change vs veh, BCL10 / RFU, UHRF1BP1L / Fold change vs veh, UHRF1BP1L / RFU, BET1 / Fold change vs veh, BET1 / RFU, CNOT2 / Fold change vs veh, CNOT2 / RFU, ZNF268 / Fold change vs veh, ZNF268 / Fold change vs veh, ZNF507 / RFU, DGCR2 / Fold change vs veh, DGCR2 / RFU, WDSUB1 / Fold change vs veh, WDSUB1 / Fold change vs veh, HSP90B1 /// MIR3652 / RFU, ADSS / Fold change vs veh, ADSS / RFU, GK / Fold change vs veh, GK / RFU, ZNF148 / Fold change vs veh, ZNF148 / RFU, TAF9 / Fold change vs veh, TAF9 / RFU, SLC1A5 / Fold change vs veh, SLC1A5 / RFU, SLMO2 / Fold change vs veh, SLMO2 / RFU, ABCC4 / Fold change vs veh, ABCC4 / RFU, LOC101060439 /// RAP1B / Fold change vs veh, LOC101060439 /// RAP1B / RFU, RFX7 / Fold change vs veh, RFX7 / RFU, GTPBP10 / Fold change vs veh, GTPBP10 / RFU, CNEP1R1 / Fold change vs veh, CNEP1R1 / RFU, BIVM-ERCC5 /// ERCC5 / Fold change vs veh, BIVM-ERCC5 /// ERCC5 / RFU, ILF3 / Fold change vs veh, ILF3 / RFU 11762660_at / Fold change /veh 11762660_at / RFU VCAN (11757783_s_at) / Fold change /veh VCAN (11757783_s_at) / RFU DDX43 (11728927_at) / Fold change /veh DDX43 (11728927_at) / RFU KRT8 (11758188_x_at) / Fold change /veh KRT8 (11758188_x_at) / RFU NKD1 (11759106_at) / Fold change /veh NKD1 (11759106_at) / RFU SRD5A1 (11742802_a_at) / Fold change /veh SRD5A1 (11742802_a_at) / RFU TPSAB1 /// TPSB2 (11721975_s_at) / Fold change /veh TPSAB1 /// TPSB2 (11721975_s_at) / RFU GSTM3 (11746129_a_at) / Fold change /veh GSTM3 (11746129_a_at) / RFU IL23R (11737362_x_at) / Fold change /veh IL23R (11737362_x_at) / RFU TMEM51 (11727254_a_at) / Fold change /veh TMEM51 (11727254_a_at) / RFU PIWIL2 (11732686_x_at) / Fold change /veh PIWIL2 (11732686_x_at) / RFU ORM1 (11744905_x_at) / Fold change /veh ORM1 (11744905_x_at) / RFU CCDC152 (11743942_at) / Fold change /veh CCDC152 (11743942_at) / RFU ECM1 (11717891_a_at) / Fold change /veh ECM1 (11717891_a_at) / RFU IL23R (11748794_a_at) / Fold change /veh IL23R (11748794_a_at) / RFU TNFAIP8L3 (11732012_x_at) / Fold change /veh TNFAIP8L3 (11732012_x_at) / RFU MBOAT4 (11741988_at) / Fold change /veh MBOAT4 (11741988_at) / RFU 11764193_at / Fold change /veh 11764193_at / RFU TMEM53 (11763286_at) / Fold change /veh TMEM53 (11763286_at) / RFU MAGEB2 (11727129_at) / Fold change /veh MAGEB2 (11727129_at) / RFU TMEM200A (11744735_a_at) / Fold change /veh TMEM200A (11744735_a_at) / RFU CCDC152 (11751479_a_at) / Fold change /veh CCDC152 (11751479_a_at) / RFU FAM211A (11726209_a_at) / Fold change /veh FAM211A (11726209_a_at) / RFU RGS16 (11746705_a_at) / Fold change /veh RGS16 (11746705_a_at) / RFU VCAN (11755009_s_at) / Fold change /veh VCAN (11755009_s_at) / RFU RHOB (11743442_s_at) / Fold change /veh RHOB (11743442_s_at) / RFU RGS16 (11720943_a_at) / Fold change /veh RGS16 (11720943_a_at) / RFU RGS16 (11720944_at) / Fold change /veh RGS16 (11720944_at) / RFU, VPS4B / Fold change vs veh, VPS4B / RFU, CREB1 / Fold change vs veh, CREB1 / RFU, DNAJC13 / Fold change vs veh, DNAJC13 / RFU, GNAQ / Fold change vs veh, GNAQ / RFU, CDK5R1 / Fold change vs veh, CDK5R1 / RFU, ZRANB3 / Fold change vs veh, ZRANB3 / RFU, CUL4A / Fold change vs veh, CUL4A / RFU, CCNY / Fold change vs veh, CCNY / RFU, UFL1 / Fold change vs veh, UFL1 / RFU, COG3 / Fold change vs veh, COG3 / RFU, DIAPH2 / Fold change vs veh, DIAPH2 / RFU, SKA2 / Fold change vs veh, SKA2 / RFU, AFF3 / Fold change vs veh, AFF3 / RFU, LMF1 / Fold change vs veh, LMF1 / RFU, IPO11 / Fold change vs veh, IPO11 / RFU, DFFB / Fold change vs veh, DFFB / RFU, FOXP1 / Fold change vs veh, FOXP1 / RFU, CARD8 / Fold change vs veh, CARD8 / RFU, STRN3 / Fold change vs veh, STRN3 / RFU, ADK / Fold change vs veh, ADK / RFU, RASSF2 / Fold change vs veh, RASSF2 / RFU, WIPF1 / Fold change vs veh, WIPF1 / RFU, LARP1B / Fold change vs veh, LARP1B / RFU, RASA1 / Fold change vs veh, RASA1 / RFU, RB1 / Fold change vs veh, RB1 / RFU, PPFIA1 / Fold change vs veh, PPFIA1 / RFU, MAT2A / Fold change vs veh, MAT2A / RFU, CCT5 / Fold change vs veh, CCT5 / RFU, WDR92 / Fold change vs veh, WDR92 / RFU, CUX1 / Fold change vs veh, CUX1 / RFU, TTC7A / Fold change vs veh, TTC7A / RFU, TMEM135 / Fold change vs veh, TMEM135 / RFU, DEPTOR / Fold change vs veh, DEPTOR / RFU, CPM / Fold change vs veh, CPM / RFU, DNAJB6 / Fold change vs veh, DNAJB6 / RFU, CACNA2D3 / Fold change vs veh, CACNA2D3 / RFU, DTX4 / Fold change vs veh, DTX4 / RFU, TFCP2 / Fold change vs veh, TFCP2 / RFU, GMCL1 /// GMCL1P1 / Fold change vs veh, GMCL1 /// GMCL1P1 / RFU, AEBP2 / Fold change vs veh, AEBP2 / RFU, SNHG1 /// SNORD22 /// SNORD25 /// SNORD26 /// SNORD27 /// SNORD28 /// SNORD29 /// SNORD31 / Fold change vs veh, SNHG1 /// SNORD22 /// SNORD25 /// SNORD26 /// SNORD27 /// SNORD28 /// SNORD29 /// SNORD31 / Fold change (Aza/veh), C12orf56 (ProbeSet 11735607_a_at) / Fold change (ACY-1035/veh), C12orf56 (ProbeSet 11735607_a_at) / Fold change (Aza/veh), FGFR1OP (ProbeSet 11751329_s_at) / Fold change (ACY-1035/veh), FGFR1OP (ProbeSet 11751329_s_at) / Fold change (Aza/veh), VPS36 (ProbeSet 11739960_a_at) / Fold change (ACY-1035/veh), VPS36 (ProbeSet 11739960_a_at) / RFU SYPL1 (11715823_x_at) / Fold change /veh SYPL1 (11715823_x_at) / RFU IGFBP7 (11715501_s_at) / Fold change /veh IGFBP7 (11715501_s_at) / RFU REEP3 (11722064_at) / Fold change /veh REEP3 (11722064_at) / RFU IGLL1 (11728026_x_at) / Fold change /veh IGLL1 (11728026_x_at): dose or concentration left out as unconfirmed
Conditions: MV-4-11 cells, 48 hours

`Nc1ccc(-c2cccs2)cc1NC(=O)c1ccc2c(c1)cc(C1CC1)n2CCN1CCOCC1` [ACY-1035] was tested, and the “RFU CDHR5 (11726645_a_at)” value was 42.85 RFU.
